Source: US5596008A, “3,4-Diaryl substituted pyridines for the treatment of inflammation” (G. D. Searle & Co., priority 1995, dated 1997)
Like-named read-outs stand apart in the source and are kept apart here.

Experiments:
COX-1 murine = biological target: T1, COX-1 murine (Mus musculus, UniProt P22437); assay: COX-1 activity in vitro (recombinant enzyme, PGE2 ELISA); type: biochemical; conditions: arachidonic acid 10 μM, pH 8.0, pre-incubation 10-20 min, read-out: COX-1 murine ID50
T1 construct: A 2.0 kb fragment containing the coding region of either human or murine COX-1; made in house; host or cells: SF9 insect cells (recombinant baculovirus, vector pVL1393)
T1 sequence (P22437 27-602): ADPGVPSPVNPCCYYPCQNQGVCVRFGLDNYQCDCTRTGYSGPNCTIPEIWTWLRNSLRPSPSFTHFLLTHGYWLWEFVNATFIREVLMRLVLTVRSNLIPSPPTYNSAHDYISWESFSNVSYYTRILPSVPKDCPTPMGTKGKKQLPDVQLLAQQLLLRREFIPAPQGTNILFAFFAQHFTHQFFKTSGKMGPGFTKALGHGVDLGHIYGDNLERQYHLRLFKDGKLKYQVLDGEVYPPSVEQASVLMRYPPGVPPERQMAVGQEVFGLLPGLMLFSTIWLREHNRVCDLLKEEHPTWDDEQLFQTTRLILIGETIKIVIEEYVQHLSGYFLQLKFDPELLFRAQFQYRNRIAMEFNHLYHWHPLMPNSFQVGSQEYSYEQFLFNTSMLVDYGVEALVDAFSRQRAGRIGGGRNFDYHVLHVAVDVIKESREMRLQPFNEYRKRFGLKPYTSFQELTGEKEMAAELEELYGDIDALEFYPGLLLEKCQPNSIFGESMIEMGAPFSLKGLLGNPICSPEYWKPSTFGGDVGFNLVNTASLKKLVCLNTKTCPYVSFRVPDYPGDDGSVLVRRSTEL
Procedure: (§1) Evaluation of COX-1 and COX-2 activity in vitro
(§2) The COX-2 inhibition activity of the compounds of this invention illustrated in the Examples was determined by the following methods.
(§3) a. Preparation of recombinant COX baculoviruses
(§4) Recombinant COX-1 and COX-2 were prepared as described by Gierse et al, [J. Biochem., 305, 479-84 (1995)]. A 2.0 kb fragment containing the coding region of either human or murine COX-1 or human or murine COX-2 was cloned into a BamH1 site of the baculovirus transfer vector pVL1393 (Invitrogen) to generate the baculovirus transfer vectors for COX-1 and COX-2 in a manner similar to the method of D. R. O'Reilly et al (Baculovirus Expression Vectors: A Laboratory Manual (1992)). Recombinant baculoviruses were isolated by transfecting 4 μg of baculovirus transfer vector DNA into SF9 insect cells (2×10^8) along with 200 ng of linearized baculovirus plasmid DNA by the calcium phosphate method. See M. D. Summers and G. E. Smith, A Manual of Methods for Baculovirus Vectors and Insect Cell Culture Procedures, Texas Agric. Exp. Station Bull. 1555 (1987). Recombinant viruses were purified by three rounds of plaque purification and high titer (10^7 -10^8 pfu/ml) stocks of virus were prepared. For large scale production, SF9 insect cells were infected in 10 liter fermentors (0.5×10^6 /ml) with the recombinant baculovirus stock such that the multiplicity of infection was 0.1. After 72 hours the cells were centrifuged and the cell pellet homogenized in Tris/Sucrose (50 mM: 25%, pH 8.0) containing 1% 3-[(3-cholamidopropyl)dimethylammonio]-1-propanesulfonate (CHAPS). The homogenate was centrifuged at 10,000×G for 30 minutes, and the resultant supernatant was stored at -80° C. before being assayed for COX activity.
(§5) b. Assay for COX-1 and COX-2 activity:
(§6) COX activity was assayed as PGE2 formed/μg protein/time using an ELISA to detect the prostaglandin released. CHAPS-solubilized insect cell membranes containing the appropriate COX enzyme were incubated in a potassium phosphate buffer (50 mM, pH 8.0) containing epinephrine, phenol, and heme with the addition of arachidonic acid (10 μM). Compounds were pre-incubated with the enzyme for 10-20 minutes prior to the addition of arachidonic acid. Any reaction between the arachidonic acid and the enzyme was stopped after ten minutes at 37° C./room temperature by transferring 40 μl of reaction mix into 160 μl ELISA buffer and 25 μM indomethacin. The PGE2 formed was measured by standard ELISA technology (Cayman Chemical).

COX-2 murine = biological target: T2, COX-2 murine (Mus musculus, UniProt Q05769); assay: COX-2 activity in vitro (recombinant enzyme, PGE2 ELISA); type: biochemical
T2 construct: human or murine COX-2 was cloned into a BamH1 site of the baculovirus transfer vector pVL1393; made in house; host or cells: SF9 insect cells (recombinant baculovirus, vector pVL1393)
T2 sequence (Q05769 18-604): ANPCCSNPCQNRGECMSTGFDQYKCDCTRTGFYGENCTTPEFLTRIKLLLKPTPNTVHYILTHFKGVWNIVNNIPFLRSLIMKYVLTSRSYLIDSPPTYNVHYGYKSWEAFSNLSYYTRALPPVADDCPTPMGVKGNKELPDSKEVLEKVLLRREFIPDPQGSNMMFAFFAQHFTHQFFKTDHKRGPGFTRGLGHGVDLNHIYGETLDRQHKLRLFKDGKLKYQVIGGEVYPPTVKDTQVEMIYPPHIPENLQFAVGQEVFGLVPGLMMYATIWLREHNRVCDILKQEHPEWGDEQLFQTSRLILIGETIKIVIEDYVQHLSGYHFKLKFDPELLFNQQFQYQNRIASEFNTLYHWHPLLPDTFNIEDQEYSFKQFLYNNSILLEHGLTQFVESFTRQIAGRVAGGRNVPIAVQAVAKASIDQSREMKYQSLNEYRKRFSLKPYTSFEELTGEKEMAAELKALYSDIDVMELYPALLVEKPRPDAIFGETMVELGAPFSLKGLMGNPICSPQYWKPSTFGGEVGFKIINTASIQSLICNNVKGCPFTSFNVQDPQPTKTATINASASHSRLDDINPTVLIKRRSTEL
Procedure: as §1, §2, §3, §4, §5, §6

[1] = COX-2 murine, arachidonic acid 10 μM, pH 8.0, pre-incubation 10-20 min, read-out: COX-2 murine ID50

Row | SMILES | IC50 (COX-1 murine) [nM] | IC50 (COX-2 murine; [1]) [nM] | IC50 (COX-2 murine) [nM]
1 | COc1cc(-c2ccc(S(C)(=O)=O)cc2)c(-c2ccc(F)cc2)c(C(F)(F)F)n1 [Example 1, 5-(4-Fluorophenyl)-2-methoxy-4-[4-(methylsulfonyl)phenyl]-6-(trifluoromethyl)pyridine] | 300 | > 30000 | 
2 | CCOc1cc(-c2ccc(S(C)(=O)=O)cc2)c(-c2ccc(F)cc2)c(C(F)(F)F)n1 [Example 2, 2-Ethoxy-5-(4-fluorophenyl)-4-[4-(methylsulfonyl)phenyl]-6-(trifluoromethyl)pyridine] | 300 | > 30000 | 
3 | C#CCOc1cc(-c2ccc(S(C)(=O)=O)cc2)c(-c2ccc(F)cc2)c(C(F)(F)F)n1 [Example 3, 5-(4-Fluorophenyl)-4-[4-(methylsulfonyl)phenyl]-2-(2-propynyloxy)-6-(trifluoromethyl)pyridine] | 200 |  | > 30000
4 | CS(=O)(=O)c1ccc(-c2cc(Br)nc(C(F)(F)F)c2-c2ccc(F)cc2)cc1 [Example 4, 2-Bromo-5-(4-fluorophenyl)-4-[4-(methylsulfonyl)phenyl]-6-(trifluoromethyl)pyridine] | 600 | > 100000 | 
